The logD is the decadic logarithm of the distribution of all forms, ionised or not, between an organic phase and buffer at a given pH. Lower therefore signals lower lipophilicity.

In one data set the test system is two-spotted spider mite (Tetranychus urticae). Briefly: Tetranychus-Test (OP resistant/spray treatment). It counts as in vivo. The conditions noted are these: Tetranychus urticae, 120 h; after 5 days; active compound concentration 0.001%; OP resistant; spray treatment of infested bean plants; 100% = all spider mites destroyed, 0% = none destroyed; read-out: destruction of spider mites (action in %). As for the experimental part:
Tetranychus-Test (OP resistant/spray treatment)
Solvent: 3 parts by weight of dimethylformamide
Emulsifier: 1 part by weight of alkylaryl polyglycol ether
To prepare a suitable preparation of active compound, 1 part by weight of active compound is mixed with the stated amount of solvent and the stated amount of emulsifier, and the concentrate is diluted with water to the desired concentrations.
Bean plants (Phaseolus vulgaris) which are severely infested with all stages of the two-spotted spider mite (Teiranychus urticae) are sprayed with a preparation of active compound of the desired concentration.
After the desired time, the action is determined in %. 100% means that all spider mites have been destroyed; 0% means that no spider mites have been destroyed.
With `Fc1cccc(F)c1C1=NN(c2ccc(-c3ccc(OC(F)(F)F)cc3)cc2)CCO1` [Example 3, 4-[4-(4-trifluoromethoxyphenyl)phenyl]-2-(2,6-difluorophenyl)-4H-5,6-dihydro-1,3,4-oxadiazine], the mortality at 0.001 % came to 95%.
The same measure, in the same setting: as for `CC(C)(C)c1ccc(CN2CCOC(c3c(F)cccc3F)=N2)cc1` [Example 4, 2-(2,6-difluorophenyl)-4-(4-tert-butylbenzyl)-4H-5,6-dihydro-1,3,4-oxadiazine], the figure is 98%.

The data set is the same for the next values; noted with them: after 5 days; active compound concentration 0.001%; OP resistant; spray treatment of infested bean plants; 100% = all spider mites destroyed, 0% = none destroyed.
For the molecule `FCCN1CCOC(c2ccc(Br)cc2)=N1` [A, 2-(4-Bromophenyl)-4-(2-fluoroeth-1-yl)-4H-5,6-dihydro-1,3,4-oxadiazine, reference compound], the “destruction of spider mites (action in %)” value is listed as “no action”.

System in a further data set: not listed separately
The data set is described as follows: log p (pH 2), physical constants. In kind it is physicochemical.
Conditions: not given
For the molecule `Fc1cccc(C2=NN(Cc3ccc(Br)cc3)CCO2)c1` [Example 35], the pH-dependent lipophilicity (logD) came to 4.8.
Take `Fc1ccc(CN2CCOC(c3cc(Cl)ccc3Cl)=N2)cc1Oc1ccccc1` [Example 33]: the logD stood at 5.41.
`Clc1cc(Cl)cc(C2=NN(Cc3ccc(Br)cc3)CCO2)c1` [Example 34] had a logD of 6.47.
The same measure, in the same setting: the figure for `Fc1cccc(F)c1C1=NN(Cc2ccc(-c3ccc(OC(F)(F)F)cc3)cc2)CCO1` [Example 29] is 5.15; for `Fc1ccc(CN2CCOC(c3ccc(Cl)c(Cl)c3)=N2)cc1Oc1ccccc1` [Example 27] it is 6.13.
The same measure, in the same setting: as for `FC(F)(F)Oc1ccc(-c2ccc(CN3CCOC(c4cc(Cl)cc(Cl)c4)=N3)cc2)cc1` [Example 37], the figure is 7.36; as for `FC(F)(F)c1ccc(C2=NN(Cc3ccc(Oc4ccc(C(F)(F)F)cc4Cl)cc3)CCO2)cc1` [Example 26], 6.44.
The same measure, in the same setting: as for `FC(F)(F)c1cccc(C2=NN(Cc3ccc(Oc4ccc(C(F)(F)F)cc4Cl)cc3)CCO2)c1` [Example 31], the figure is 6.43.
For the molecule `FC(F)(F)c1ccc(Oc2ccc(CN3CCOC(c4cc(Cl)ccc4Cl)=N3)cc2)c(Cl)c1` [Example 19], the pH-dependent lipophilicity (logD) was 6.35.
Same read-out and setting: the figure for `Fc1cccc(F)c1C1=NN(Cc2ccc(Br)cc2)CCO1` [Example 22] is 4.03; for `Brc1ccc(CN2CCOC(c3cccs3)=N2)cc1` [Example 20] it is 4.26.
Consider `Fc1cccc(C2=NN(Cc3ccc(-c4ccc(OC(F)(F)F)cc4)cc3)CCO2)c1` [Example 36], for which the logD amounted to 5.87.
Still for that read-out and setting: as for `FC(F)(F)Oc1ccc(-c2ccc(CN3CCOC(c4cccs4)=N3)cc2)cc1` [Example 23], the figure is 5.41; as for `Fc1cccc(F)c1C1=NN(Cc2cc(Cl)c(OCc3ccc(Cl)cc3)c(Cl)c2)CCO1` [Example 21], 5.67.
Still for that read-out and setting: as for `Clc1ccc(Cl)c(C2=NN(Cc3cccc(Oc4ccccc4)c3)CCO2)c1` [Example 25], the figure is 5.57; as for `Fc1cccc(F)c1C1=NN(Cc2ccc(-c3ccccc3)cc2)CCO1` [Example 30], 4.49; as for `Fc1cccc(F)c1C1=NN(Cc2ccccc2)CCO1` [Example 38], 3.38.
On the same count and under the same terms, the figure for `Fc1ccc(C2=NN(Cc3ccc(Br)cc3)CCO2)cc1` [Example 32] is 4.73; for `Clc1ccc(C2=NN(Cc3ccc(Oc4ccccc4)cc3)CCO2)c(Cl)c1` [Example 18] it is 5.61.
`Clc1ccc(COc2c(Cl)cc(CN3CCOC(c4cccs4)=N3)cc2Cl)cc1` [Example 24]: the logD was 5.95.
